Experimental data taken from US20100003246A1, “Novel heterocyclic compounds and uses therof” (priority 2008, published 2010).

Target: T1, b-Raf(V600E) (Homo sapiens, UniProt P15056, V600E)
T1 construct: made in house
Assay: Raf/Mek Amplified Luminescence Proximity Homogeneous Assay (Alpha Screen), b-Raf(V600E)
Assay type: biochemical
Settings: mutant b-Raf(V600E), read-out: mut-b-RAF (IC50 in uM)
In short: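 IC50 derived by non-linear regression from AlphaScreen luminescence of phospho-MEK (anti-p-MEK antibody). Reaction: ~4 pM b-Raf(V600E), ~10 nM kinase-dead biotinylated Mek, 60 min compound pre-incubation, then 3 h with ATP at room temperature in pH 7.5 Tris/MgCl2/DTT buffer, quenched with EDTA.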

T1 sequence (P15056 whole entry V600E): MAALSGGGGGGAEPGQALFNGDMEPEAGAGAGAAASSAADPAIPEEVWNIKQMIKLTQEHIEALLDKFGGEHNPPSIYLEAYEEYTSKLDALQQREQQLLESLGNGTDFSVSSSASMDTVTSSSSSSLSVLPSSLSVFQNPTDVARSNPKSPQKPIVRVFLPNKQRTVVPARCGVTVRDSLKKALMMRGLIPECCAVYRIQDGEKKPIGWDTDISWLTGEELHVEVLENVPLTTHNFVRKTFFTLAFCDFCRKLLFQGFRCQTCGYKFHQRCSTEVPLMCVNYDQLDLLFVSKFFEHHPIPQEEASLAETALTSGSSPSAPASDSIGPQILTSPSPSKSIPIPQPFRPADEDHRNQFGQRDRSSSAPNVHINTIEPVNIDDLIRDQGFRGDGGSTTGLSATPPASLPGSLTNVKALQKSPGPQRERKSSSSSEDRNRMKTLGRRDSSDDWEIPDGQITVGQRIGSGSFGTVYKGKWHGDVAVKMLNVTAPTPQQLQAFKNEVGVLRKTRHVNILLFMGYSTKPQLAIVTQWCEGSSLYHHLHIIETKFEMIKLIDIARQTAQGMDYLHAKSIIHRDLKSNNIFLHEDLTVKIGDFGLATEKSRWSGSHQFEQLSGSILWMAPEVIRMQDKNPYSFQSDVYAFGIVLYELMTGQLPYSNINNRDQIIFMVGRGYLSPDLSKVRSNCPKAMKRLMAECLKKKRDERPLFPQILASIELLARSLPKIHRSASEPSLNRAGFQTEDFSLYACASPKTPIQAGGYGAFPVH

Structure (SMILES) | IC50
COCC(=O)N[C@@H](C)CNc1nccc(-c2[nH]c(C(C)C)nc2-c2cnc(N)c(OC)c2)n1 [Compound 226, (S)-N-(1-(4-(4-(6-amino-5-methoxypyridin-3-yl)-2-isopropyl-1H-imidazol-5-yl)pyrimidin-2-ylamino)propan-2-yl)-2-methoxyacetamide] | 0.3 nM
COCC(=O)N[C@@H](C)CNc1nccc(-c2[nH]c(C(C)C)nc2-c2cnc(N)c(OC)n2)n1 [Compound 227, (S)-N-(1-(4-(4-(5-amino-6-methoxypyrazin-2-yl)-2-isopropyl-1H-imidazol-5-yl)pyrimidin-2-ylamino)propan-2-yl)-2-methoxyacetamide] | 0.3 nM
COc1cc(-c2nc(C(C)(C)C)n(C)c2-c2ccnc(NCC(C)C)n2)cnc1N [Compound 228, 4-(4-(6-amino-5-methoxypyridin-3-yl)-2-tert-butyl-1-methyl-1H-imidazol-5-yl)-N-isobutylpyrimidin-2-amine] | 0.6 nM
COCC(=O)N[C@@H](C)CNc1nccc(-c2oc(-c3ccc(C(F)(F)F)cc3)nc2-c2cnc(N)c(OC)n2)n1 [Compound 229, (S)-N-(1-(4-(4-(5-amino-6-methoxypyrazin-2-yl)-2-(4-(trifluoromethyl)phenyl)-oxazol-5-yl)pyrimidin-2-ylamino)propan-2-yl)-2-methoxyacetamide] | 3 nM
COc1cc(Nc2nccc(-c3[nH]c(C(C)(C)C)nc3-c3cnc(N)c(OC)c3)n2)ccn1 [Compound 230, 4-(4-(6-amino-5-methoxypyridin-3-yl)-2-tert-butyl-1H-imidazol-5-yl)-N-(2-methoxypyridin-4-yl)pyrimidin-2-amine] | 0.1 nM
COc1cc(Nc2nccc(-c3[nH]c(C(C)C)nc3-c3cnc(N)c(OC)c3)n2)ccn1 [Compound 231, 4-(4-(6-amino-5-methoxypyridin-3-yl)-2-isopropyl-1H-imidazol-5-yl)-N-(2-methoxypyridin-4-yl)pyrimidin-2-amine] | 0.2 nM
COc1cc(-c2nc(-c3ccc(C(F)(F)F)cc3)oc2-c2ccnc(NCC(C)C)c2)cnc1N [Compound 232, 4-(4-(6-amino-5-methoxypyridin-3-yl)-2-(4-(trifluoromethyl)phenyl)-oxazol-5-yl)-N-isobutylpyridin-2-amine] | 8.4 nM
COc1cc(Nc2nccc(-c3[nH]c(C(C)(C)C)nc3-c3cnc4[nH]cc(Cl)c4c3)n2)ccn1 [Compound 233, 4-(2-tert-butyl-4-(3-chloro-1H-pyrrolo[2,3-b]pyridin-5-yl)-1H-imidazol-5-yl)-N-(2-methoxypyridin-4-yl)pyrimidin-2-amine] | 0.3 nM
COC(=O)N[C@@H](C)CNc1nccc(-c2nc(C(C)(C)C)[nH]c2-c2cnc(N)c(C(C)=O)c2)n1 [Compound 235, (S)-methyl-1-(4-(5-(5-acetyl-6-aminopyridin-3-yl)-2-tert-butyl-1H-imidazol-4-yl)pyrimidin-2-ylamino)propan-2-ylcarbamate] | 0.4 nM
CCOC(=O)N[C@@H](C)CNc1nccc(-c2[nH]c(C(C)(C)C)nc2-c2cnc(N)c(OC)n2)n1 [Compound 236, (S)-ethyl 1-(4-(4-(5-amino-6-methoxypyrazin-2-yl)-2-tert-butyl-1H-imidazol-5-yl)pyrimidin-2-ylamino)propan-2-ylcarbamate] | 0.1 nM
COc1nc(-c2nc(C(C)(C)C)[nH]c2-c2ccnc(NC[C@H](C)NC(=O)OC(C)C)n2)cnc1N [Compound 237, (S)-isopropyl 1-(4-(4-(5-amino-6-methoxypyrazin-2-yl)-2-tert-butyl-1H-imidazol-5-yl)pyrimidin-2-ylamino)propan-2-ylcarbamate] | 0.1 nM
COc1nc(-c2nc(C(C)(C)C)[nH]c2-c2ccnc(NC[C@H](C)NC(=O)OCC(C)(C)C)n2)cnc1N [Compound 238, (S)-neopentyl 1-(4-(4-(5-amino-6-methoxypyrazin-2-yl)-2-tert-butyl-1H-imidazol-5-yl)pyrimidin-2-ylamino)propan-2-ylcarbamate] | 0.1 nM
COc1nc(-c2nc(C(C)(C)C)[nH]c2-c2ccnc(NC[C@H](C)NC(=O)OCC(C)C)n2)cnc1N [Compound 239, (S)-isobutyl 1-(4-(4-(5-amino-6-methoxypyrazin-2-yl)-2-tert-butyl-1H-imidazol-5-yl)pyrimidin-2-ylamino)propan-2-ylcarbamate] | 0.1 nM
COC(=O)N[C@@H](C)CNc1nccc(-c2nc(C(C)(C)C)[nH]c2-c2ccc3[nH]ccc3c2)n1 [Compound 240, (S)-methyl 1-(4-(2-tert-butyl-5-(1H-indol-5-yl)-1H-imidazol-4-yl)pyrimidin-2-ylamino)propan-2-ylcarbamate] | 13.8 nM
COc1cc(-c2nc(C(C)(C)C)[nH]c2-c2ccnc(NC[C@H](C)NC(=O)[C@H](C)OC)n2)cnc1N [Compound 241, (S)-N-((S)-1-(4-(4-(6-amino-5-methoxypyridin-3-yl)-2-tert-butyl-1H-imidazol-5-yl)pyrimidin-2-ylamino)propan-2-yl)-2-methoxypropanamide] | 0.7 nM
COc1nc(-c2nc(C(C)(C)C)[nH]c2-c2ccnc(NC[C@H](C)NC(=O)[C@H](C)OC)n2)cnc1N [Compound 242, (S)-N-((S)-1-(4-(4-(5-amino-6-methoxypyrazin-2-yl)-2-tert-butyl-1H-imidazol-5-yl)pyrimidin-2-ylamino)propan-2-yl)-2-methoxypropanamide] | 0.2 nM
CCc1nc(-c2cnc(N)c(OC)c2)c(-c2ccnc(Nc3ccnc(OC)c3)n2)[nH]1 [Compound 243, 4-(4-(6-amino-5-methoxypyridin-3-yl)-2-ethyl-1H-imidazol-5-yl)-N-(2-methoxypyridin-4-yl)pyrimidin-2-amine] | 0.4 nM
COc1cc(Nc2nccc(-c3[nH]c(C)nc3-c3cnc(N)c(OC)c3)n2)ccn1 [Compound 244, 4-(4-(6-amino-5-methoxypyridin-3-yl)-2-methyl-1H-imidazol-5-yl)-N-(2-methoxypyridin-4-yl)pyrimidin-2-amine] | 3 nM
COc1cc(Nc2nccc(-c3[nH]c(C)nc3-c3cnc(N)c(OC)n3)n2)ccn1 [Compound 245, 4-(4-(5-amino-6-methoxypyrazin-2-yl)-2-methyl-1H-imidazol-5-yl)-N-(2-methoxypyridin-4-yl)pyrimidin-2-amine] | 11 nM
COc1cc(-c2nc(C(C)(C)C)oc2-c2ccnc(NCC(C)C)c2)cnc1N [Compound 246, 4-(4-(6-amino-5-methoxypyridin-3-yl)-2-tert-butyloxazol-5-yl)-N-isobutylpyridin-2-amine] | 0.1 nM
COCC(=O)N[C@@H](C)CNc1nccc(-c2[nH]c(-c3ccc(C(F)(F)F)cc3F)nc2-c2cnc(N)c(OC)n2)n1 [Compound 247, (S)-N-(1-(4-(4-(5-amino-6-methoxypyrazin-2-yl)-2-(2-fluoro-4-(trifluoromethyl)phenyl)-1H-imidazol-5-yl)pyrimidin-2-ylamino)propan-2-yl)-2-methoxyacetamide] | 0.1 nM
COCC(=O)N[C@H](C)CNc1nccc(-c2[nH]c(-c3ccc(F)cc3)nc2-c2cnc(N)c(OC)n2)n1 [Compound 249, (R)-N-(1-(4-(4-(5-amino-6-methoxypyrazin-2-yl)-2-(4-fluorophenyl)-1H-imidazol-5-yl)pyrimidin-2-ylamino)propan-2-yl)-2-methoxyacetamide] | 12 nM
COCC(=O)N[C@@H](C)CNc1nccc(-c2[nH]c(C3CC3)nc2-c2cnc(N)c(OC)n2)n1 [Compound 250, (S)-N-(1-(4-(4-(5-amino-6-methoxypyrazin-2-yl)-2-cyclopropyl-1H-imidazol-5-yl)pyrimidin-2-ylamino)propan-2-yl)-2-methoxyacetamide] | 0.1 nM
COC(=O)N[C@@H](C)CNc1nccc(-c2[nH]c(C3(C)CC3)nc2-c2cnc(N)c(OC)n2)n1 [Compound 251, (S)-methyl 1-(4-(4-(5-amino-6-methoxypyrazin-2-yl)-2-(1-methylcyclopropyl)-1H-imidazol-5-yl)pyrimidin-2-ylamino)propan-2-ylcarbamate] | 0.04 nM
COCC(=O)N[C@@H](C)CNc1nccc(-c2[nH]c(-c3ccc(F)cc3)nc2-c2nc(OC)c(N)nc2C)n1 [Compound 252, (S)-N-(1-(4-(4-(5-amino-6-methoxy-3-methylpyrazin-2-yl)-2-(4-fluorophenyl)-1H-imidazol-5-yl)pyrimidin-2-ylamino)propan-2-yl)-2-methoxyacetamide] | 2.4 nM
COc1cc(Nc2nccc(-c3[nH]c(C(C)(C)C)nc3-c3nc(OC)c(N)nc3C)n2)ccn1 [Compound 253, 4-(4-(5-amino-6-methoxy-3-methylpyrazin-2-yl)-2-tert-butyl-1H-imidazol-5-yl)-N-(2-methoxypyridin-4-yl)pyrimidin-2-amine] | 6.2 nM
COc1nc(-c2nc(C(C)(C)C)[nH]c2-c2ccnc(NC[C@H](C)NC(=O)[C@H](C)OC)n2)c(C)nc1N [Compound 254, (S)-N-((S)-1-(4-(4-(5-amino-6-methoxy-3-methylpyrazin-2-yl)-2-tert-butyl-1H-imidazol-5-yl)pyrimidin-2-ylamino)propan-2-yl)-2-methoxypropanamide] | 3.8 nM
COCC(=O)N[C@@H](C)CNc1nccc(-c2[nH]c(C3CC3)nc2-c2nc(OC)c(N)nc2C)n1 [Compound 255, (S)-N-(1-(4-(4-(5-amino-6-methoxy-3-methylpyrazin-2-yl)-2-cyclopropyl-1H-imidazol-5-yl)pyrimidin-2-ylamino)propan-2-yl)-2-methoxyacetamide] | 3.9 nM
CCOC(=O)N[C@@H](C)CNc1nccc(-c2[nH]c(C(C)(C)C)nc2-c2nc(OC)c(N)nc2C)n1 [Compound 256, (S)-ethyl 1-(4-(4-(5-amino-6-methoxy-3-methylpyrazin-2-yl)-2-tert-butyl-1H-imidazol-5-yl)pyrimidin-2-ylamino)propan-2-ylcarbamate] | 1.1 nM
COc1nc(-c2nc(C(C)(C)C)[nH]c2-c2ccnc(NC[C@H](C)NC(=O)OC(C)C)n2)c(C)nc1N [Compound 257, (S)-isopropyl 1-(4-(4-(5-amino-6-methoxy-3-methylpyrazin-2-yl)-2-tert-butyl-1H-imidazol-5-yl)pyrimidin-2-ylamino)propan-2-ylcarbamate] | 1.2 nM
